Values joined by “and” are separate entries in the source; they are usually repeats but may differ in a detail not shown here. Equal entries are not always repeated.
Columns and labels:
Assay type in all cases: cell-based, Leishmania donovani
[1] = test system: L. donovani 282/4 Milt-Sb-sensitive intracellular amastigotes; assay: Intracellular amastigote assay, Milt-resistant 282/4; settings: for IC50: Leishmania donovani, read-out: Mean IC50 Value Amastigotes; for Selectivity Index (SI50): strain 282/4, Milt-Sb-sensitive, macrophage CC50 / amastigote IC50
Description: (§1) L. donovani cloned strains with different Sb susceptibility backgrounds were derived from isolates obtained from VL patients at the B.P. Koirala Institute of Health Sciences, Dharan, Nepal: MHOM/NP/02/BPK282/0cl4 (Sb sensitive, Sb-S). MHOM/NP/02/BPK087/0cl11 (Sb intermediate, Sb-I) and MHOM/NP/02/BPK275/0cl18 (Sb resistance, Sb-R [13]). In addition, Milt-resistant parasites raised against these three Sb sensitivity backgrounds and the Sb-sensitive strain (MHOM/ET/67:LV82) was also used in studies. Luciferase expressing promastigotes for the LV82 and Nepalese strains were prepared using previously published methods and the integrative construct (a gift from Dr D.F. Smith), designated pGL1313, contained pSSU-int fragments to facilitate integration into the ribosomal RNA locus of Leishmania.
(§2) In the macrophage studies, the method described in previous studies was used as follows. Briefly, bone-marrow-derived BALB/c macrophages (1–2 × 10^5) in 100 µL complete RPMI 1640 medium were added to the wells of a 96 well plate and left to adhere for 24 h at 37 °C, 5% CO₂/95% air. The medium was removed and 100 µL of the appropriate L. donovani luciferase-expressing promastigotes line (parasite: host cell ratio 1:10, 1:20 or 1:40) was added to each well, the ratio used reflected the infectivity of the strain and ensured that control data gave a bioluminescent signal within the same range. […] The variability in infectivity complicates strain to strain comparisons, but we decided to focus on achieving good infection levels in controls so that the effect of drug treatment could be determined. It is possible that intracellular macrophage parasites could have been at different developmental stages at 24 h post-infection. […] Therefore, we assumed that the effect of compounds on the amastigote stage rather than the promastigotes stage was determined in in vitro macrophage studies.
The plate was incubated for a further 24 h, the medium removed, and each well washed with PBS to eliminate non-internalized parasites, which were monitored microscopically. […]
(§3) Luciferin solution (1 µg/mL in 20 µL medium without FCS) was added to the appropriate wells of the 96-well plate at the end of the experiment and the amount of light emitted/well was measured using a luminometer (Biotek Synergy HT, relative light units) using a wavelength/bandwidth of 440/40 nm, or IVIS® imaging (Spectrum Living Image system®, total flux, photons/sec).
(§4) The effect of drug treatment on parasite survival was determined by calculating the mean suppression in the light emitted from the drug-treated experimental sample compared to the mean control value and used to calculate the IC50 using Grafit® software (version 5.0, Erithacus Software, East Grinstead, West Sussex, UK). The effect of drug alone on the viability of uninfected macrophages was determined using the same experimental protocol above, but cell viability was determined using an alamar blue colorimetric assay. At the end of the incubation period, cells’ 10 µL resazurin solution (0.02% w/v) was added to control and drug treated cells and the absorbance of samples was read at 575 and 595 nm. The effect of drug treatment on cell survival, which correlates with the magnitude of dye reduction, was expressed as percentage viability (or alamar blue reduction) and determined using the formula provided in the manufacturer’s protocol % alamar blue reduction=(εoxλ)(Aλ1)−(εoxλ1)(Aλ2)/(εredλ1)(A^′λ2)−(εredλ2)(A^′λ1)x100

[2] = test system: L. donovani 275/18 (Sb-resistant) promastigotes; assay: Promastigote luciferase assay, Sb-resistant strain 275/18; settings: for IC50: Leishmania donovani, read-out: Mean IC50 Promastigotes; for Promast: Amast Ratio: strain 275/18, Sb-resistant; for Cross-Resistance Index (CRI50) Promast: strain 275/18, Sb-resistant vs Sb-S
Description: as §1
The anti-leishmanial activity of APC against L. donovani luciferase-expressing promastigotes was determined by adding of the appropriate 100 µL parasite line (10^6 cells/mL) to the wells of a 96-well plate and adding 100 µL medium alone (controls) or 100 µL of APC compound (0.01 µg/mL–6.25 µg/mL, n = 3/treatment). […].
as §3, §4
Cross resistance (CRI50) indexes were determined as Cross selectivity indices (CRI)=mean IC50 value for the relevant drug−resistant strain i.e., Sb−I or Sb−R / mean IC50 value drug−sensitive strain Sb−S

[3] = test system: L. donovani 087/11 Milt-Sb-intermediate intracellular amastigotes; assay: Intracellular amastigote assay, Milt-resistant 087/11; settings: for IC50: Leishmania donovani, read-out: Mean IC50 Value Amastigotes; for Cross-Resistance Index (CRI50) Amast / Selectivity Index (SI50): strain 087/11, Milt-Sb-intermediate; for Selectivity Index (SI50): macrophage CC50 / amastigote IC50
Description: as §1, §2
The plate was incubated for a further 24 h, the medium removed, and each well washed with PBS to eliminate non-internalized parasites, which were monitored microscopically. When the wells were devoid of external parasites, 100 µL of the medium alone (control) or appropriate APC compound was then added (0.01–0.197 µg/mL, n = 3/treatment). […]. All plates were incubated for 72 h at 37 °C, 5% CO₂/95% air. Wells with macrophage and with no drug or promastigotes added were used in control experiments.
as §3
as §4, with “reduction=(εoxλ)(Aλ1)−(εoxλ1)(Aλ2)/(εredλ1)(A^′λ2)−(εredλ2)(A^′λ1)x100 […]” for “reduction=(εoxλ)(Aλ1)−(εoxλ1)(Aλ2)/(εredλ1)(A^′λ2)−(εredλ2)(A^′λ1)x100”

[4] = test system: L. donovani LV82 promastigotes; assay: Luciferase-expressing promastigote assay, strain LV82; settings: for Promast: Amast Ratio / IC90: LV82; for IC50 / IC90: Leishmania donovani; for IC50: 72 h
Protocol: (§5) The anti-leishmanial activity of APC against L. donovani luciferase-expressing promastigotes was determined by adding of the appropriate 100 µL parasite line (10^6 cells/mL) to the wells of a 96-well plate and adding 100 µL medium alone (controls) or 100 µL of APC compound (0.01 µg/mL–6.25 µg/mL, n = 3/treatment). The plate was incubated for 72 h at 25 °C. In combination assays, the additional compound/compounds, at a final concentration of 0.195 or 0.39 µg/mL, was added to the initial APC being tested.
as §3, §4

[5] = test system: L. donovani 282/4 (Sb-sensitive) promastigotes; assay: Promastigote luciferase assay, Sb-sensitive strain 282/4; settings: strain 282/4, Sb-sensitive; for IC50: Leishmania donovani
Description: as §1, §5, §3, §4

Row | Compound | IC50 [1] | Selectivity Index (SI50) [1] | IC50 [2] | Promast: Amast Ratio [2] | Cross-Resistance Index (CRI50) Promast [2] | IC50 [3] | Cross-Resistance Index (CRI50) Amast [3] | Selectivity Index (SI50) [3] | Promast: Amast Ratio [4] | Promastigotes mean IC50 ([4]; LV82, 3 days, 25 °C) [µg/mL] | IC50 ([4]; LV82, 3 days, 25 °C) | IC90 [4] [µg/mL] | fold more active than Milt (APC16) ([4]; promastigotes) [fold] | IC50 [5] | Promast: Amast Ratio [5]
1 | CCCCCCCCCCCCOP(=O)([O-])OCC[N+](C)(C)C [APC12, dodecylphosphocholine] | 0.08 µg/mL and 230 nM | 442.25 | 0.49 µg/mL and 1.39 µM | 2.10 | 0.89 | 6.17 µg/mL and 17.6 µM | 77.13 | 5.73 | 16.46 | 0.16 ± 0.00 | 0.163 µg/mL and 460 nM | 1.47 | 10 | 0.55 µg/mL and 1.56 µM | 2.09
2 | CCCCCCCCCCCCCCOP(=O)([O-])OCC[N+](C)(C)C [APC14, tetradecylphosphocholine] | > 1.73 µg/mL and > 4.56 µM | >23.64 | 0.37 µg/mL and 970 nM | 1.31 | 0.84 | 10 µg/mL and 26.4 µM | > 5.95 | 4.08 | 7.97 | – | 0.2 µg/mL and 530 nM | – | – | 0.44 µg/mL and 1.16 µM | 3.64
3 | CCCCCCCCCCCCCCCCOP(=O)([O-])OCC[N+](C)(C)C [APC16, hexadecylphosphocholine, reference compound] | > 1.61 µg/mL and > 3.95 µM | – | 1.26 µg/mL and 3.09 µM | 2.49 | – | 12.7 µg/mL and 31 µM | – | – | 7.00 | – | 0.7 µg/mL and 1.72 µM | 6.3 ± 0.1 | – | 0.84 µg/mL and 2.06 µM | 2.68

Reference: article PMC7463460, “Structure and Antiparasitic Activity Relationship of Alkylphosphocholine Analogues against Leishmania donovani” (Microorganisms, 2020)
